Tests used:
Parameters in all cases: key: 0: normal development; 1: Less damaged; 2: Slightly damaged; 3: Moderately damaged; 4: Severely damaged; 5: All killed
[1] = system: barnyardgrass; assay: Soil treatment test for upland field; format: in vivo, Echinochloa crusgalli; settings: 500 g/ha, glass house 25° C., 3 weeks
How it was run: (§1)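 Herbicidal effect graded on a 0–5 scale (0 normal development, 5 all killed) after 3 weeks in a glasshouse at about 25° C. Compound applied as a soil-surface spray at 500 g/ha right after sowing into Ube alluvial soil; spray water contained 0.05% surfactant.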

[2] = system: common lambsquartes; assay: Soil treatment test for upland field; format: in vivo, Chenopodium album; settings: 500 g/ha, glass house 25° C., 3 weeks
How it was run: as §1

[3] = system: barnyardgrass; assay: Herbicidal test for paddy field; format: in vivo, Echinochloa crusgalli; settings: paddy field pot, 500 g/ha dropwise at 1.5 leaf stage of barnyardgrass, 3 weeks, rank vs non-treated
How it was run: (§2)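 Scores ran from 0 (normal development) to 5 (all killed) against untreated pots, judged after 3 weeks in a glasshouse averaging 25° C. Compound, as wettable powder diluted in water with 0.05% surfactant, was applied dropwise into 3 cm-deep paddy water at 500 g/ha. Application was at the 1.5-leaf stage of barnyardgrass.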

[4] = system: corn; assay: Soil treatment test for upland field; format: in vivo; settings: 500 g/ha, glass house 25° C., 3 weeks
How it was run: as §1

[5] = system: soybean; assay: Soil treatment test for upland field; format: in vivo; settings: 500 g/ha, glass house 25° C., 3 weeks
How it was run: as §1

[6] = system: solgum; assay: Soil treatment test for upland field; format: in vivo; settings: 500 g/ha, glass house 25° C., 3 weeks
How it was run: as §1

[7] = system: sugar beat; assay: Soil treatment test for upland field; format: in vivo; settings: 500 g/ha, glass house 25° C., 3 weeks
How it was run: as §1

[8] = system: wheat; assay: Soil treatment test for upland field; format: in vivo; settings: 500 g/ha, glass house 25° C., 3 weeks
How it was run: as §1

[9] = system: cotton; assay: Soil treatment test for upland field; format: in vivo; settings: 500 g/ha, glass house 25° C., 3 weeks
How it was run: as §1

[10] = system: bulrush; assay: Herbicidal test for paddy field; format: in vivo, Scrips juncoides; settings: paddy field pot, 500 g/ha dropwise at 1.5 leaf stage of barnyardgrass, 3 weeks, rank vs non-treated
How it was run: as §2

[11] = system: soybean; assay: Foliar spread test for upland field; format: in vivo; settings: foliar spray 500 ppm, 3 weeks, rank vs non-treated
How it was run: (§3)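 Wettable powders at 500 ppm, with 0.5% surfactant, were sprayed uniformly over plants raised for roughly 2 weeks in glasshouse pots of volcanic ash soil. Herbicidal damage rated on a 0–5 scale (5 = all killed) after a further 3 weeks at an average 25 °C.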

[12] = system: cotton; assay: Foliar spread test for upland field; format: in vivo; settings: foliar spray 500 ppm, 3 weeks, rank vs non-treated
How it was run: as §3

[13] = system: velvetleaf; assay: Soil treatment test for upland field; format: in vivo, Abutilon theophrasti; settings: 500 g/ha, glass house 25° C., 3 weeks
How it was run: as §1

[14] = system: barnyardgrass; assay: Foliar spread test for upland field; format: in vivo, Echinochloa crusgalli; settings: foliar spray 500 ppm, 3 weeks, rank vs non-treated
How it was run: as §3

| Structure (SMILES) | Effects Barnyardgrass [1] | Effects Common lambsquarters [2] | Effect Barnyardgrass [3] | Effects Corn [4] | Effects Soybean [5] | Effects Solgum [6] | Effects Sugar beat [7] | Effects Wheat [8] | Effects Cotton [9] | Effect Bulrush [10] | Effects Soybean [11] | Effects Cotton [12] | Effects Velvetleaf [13] | Effects Barnyardgrass [14] |
| --- | --- | --- | --- | --- | --- | --- | --- | --- | --- | --- | --- | --- | --- | --- |
| CC(Oc1ccc(F)c(C(F)(F)F)c1)c1nc2cc(Cl)ccc2o1 (stereo not drawn) [Compound 137] | 3 | 2 | 3 | 1 | 0 | 1 | 2 | 1 | 0 | 3 | 3 | 2 |  |  |
| CCC(Oc1cccc(C(F)(F)F)c1)c1nc2cc(Cl)ccc2o1 (stereo not drawn) [Compound 140] | 4 | 4 | 5 | 0 | 0 | 1 | 3 | 0 | 0 |  | 3 | 3 | 1 | 2 |
| CCCC(Oc1ccc(F)c(C(F)(F)F)c1)c1nc2cc(Cl)ccc2o1 (stereo not drawn) [Compound 141] | 3 | 5 | 5 | 1 | 2 | 2 | 5 | 0 |  | 5 | 4 | 3 | 5 | 4 |
| CCC(Oc1ccc(F)c(C(F)(F)F)c1)c1nc2cc(C(F)(F)F)ccc2o1 (stereo not drawn) [Compound 197] | 5 | 4 | 4 | 2 |  | 2 | 5 | 2 | 3 |  | 5 | 3 | 5 | 1 |
| CCC(Oc1cccc(C(F)(F)F)c1)c1nc2cc(C#N)c(C#N)cc2o1 (stereo not drawn) [Compound 315] | 4 | 4 | 3 | 2 | 1 | 1 | 5 | 1 | 1 | 2 |  |  | 5 |  |
| CCCC(Oc1cccc(C(F)(F)F)c1)c1nc2cc(F)c(C(F)(F)F)cc2o1 (stereo not drawn) [Compound 474] | 5 | 5 | 2 | 2 | 2 | 1 | 5 | 1 | 1 |  |  |  | 5 |  |
| CCCC(Oc1ccc(F)c(C(F)(F)F)c1)c1nc2cc(F)c(Cl)cc2o1 (stereo not drawn) [Compound 494] | 4 | 4 | 5 | 1 | 0 | 1 | 5 | 1 | 0 | 3 |  | 2 | 3 |  |
| CCCC(Oc1cccc(C(F)(F)F)c1)c1nc2cc(F)c(Cl)cc2o1 (stereo not drawn) [Compound 497] |  | 5 | 4 | 1 | 1 | 1 | 5 | 1 | 1 | 2 |  | 2 | 3 |  |
| CCC(Oc1cccc(C#N)c1)c1nc2cc(F)c(Cl)cc2o1 (stereo not drawn) [Compound 498] | 3 | 5 | 3 | 0 | 1 | 1 | 5 | 1 | 1 | 3 |  |  | 3 |  |

Source: patent US6706664B1, “Benzoxazole compounds, process for the preparation thereof and herbicides” (UBE Industries, Ltd., priority 1999, dated 2004)
